Experimental data published in patent US10131652B2, “Pyrimidinyloxy benzene derivatives as herbicides” (E. I. DU PONT DE NEMOURS AND COMPANY, priority 2014, dated 2018).

What was measured:
Assay in all cases: Test D pre-/postemergence plant response
Assay type in all cases: in vivo
[1] = system: ragweed (common ragweed, Ambrosia elatior)
From the text: (§1) Seeds of plant species selected from blackgrass (Alopecurus myosuroides), Italian ryegrass (Lolium multiflorum), winter wheat (Triticum aestivum), galium (catchweed bedstraw, Galium aparine), corn (Zea mays), large (Lg) crabgrass (Digitaria sanguinalis), giant foxtail (Setaria faberii), johnsongrass (Sorghum halepense), lambsquarters (Chenopodium album), morningglory (Ipomoea coccinea), yellow nutsedge (Cyperus esculentus), pigweed (Amaranthus retroflexus), ragweed (common ragweed, Ambrosia elatior), soybean (Glycine max), bamyardgrass (Echinochloa crus-galli), oilseed rape (Brassica napus), waterhemp (common waterhemp, Amaranthus rudis), and velvetleaf (Abutilon theophrasti) were planted into a blend of loam soil and sand and treated preemergence with test chemicals formulated in a non-phytotoxic solvent mixture which included a surfactant. At the same time, plants selected from these crop and weed species and also kochia (Kochia scoparia), wild oat (Avena fatua), and chickweed (common chickweed, Stellaria media) were planted in pots containing Redi-Earth® planting medium (Scotts Company, 14111 Scottslawn Road, Marysville, Ohio 43041) comprising spaghnum peat moss, vermiculite, wetting agent and starter nutrients and treated with postemergence applications of test chemicals formulated in the same manner. Plants ranged in height from 2 to 18 cm (1- to 4-leaf stage) for postemergence treatments. Treated plants and controls were maintained in a greenhouse for 13 to 15 days, after which time all species were compared to controls and visually evaluated. Plant response ratings, summarized in Table D, are based on a scale of 0 to 100 where 0 is no effect and 100 is complete control. A dash (-) response means no test result.

[2] = system: lambsquarters (Chenopodium album)
From the text: as §1

soybean (Glycine max) = system: soybean (Glycine max)
From the text: as §1

[3] = system: waterhemp (common waterhemp, Amaranthus rudis)
From the text: as §1

[4] = system: yellow nutsedge (Cyperus esculentus)
From the text: as §1

[5] = system: velvetleaf (Abutilon theophrasti)
From the text: as §1

corn (Zea mays) = system: corn (Zea mays)
From the text: as §1

[6] = system: blackgrass (Alopecurus myosuroides)
From the text: as §1

[7] = system: galium (catchweed bedstraw, Galium aparine)
From the text: as §1

[8] = system: pigweed (Amaranthus retroflexus)
From the text: as §1

[9] = system: morningglory (Ipomoea coccinea)
From the text: as §1

[10] = system: oilseed rape (Brassica napus)
From the text: as §1

[11] = system: Italian ryegrass (Lolium multiflorum)
From the text: as §1

[12] = system: large (Lg) crabgrass (Digitaria sanguinalis)
From the text: as §1

[13] = system: giant foxtail (Setaria faberii)
From the text: as §1

[14] = system: barnyardgrass (Echinochloa crus-galli)
From the text: as §1

[15] = system: johnsongrass (Sorghum halepense)
From the text: as §1

[16] = system: winter wheat (Triticum aestivum)
From the text: as §1

[17] = Postemergence, 16 g ai/ha, scale 0 to 100 (0 no effect, 100 complete control)
[18] = Postemergence, 31 g ai/ha, scale 0 to 100 (0 no effect, 100 complete control)
[19] = Postemergence, 62 g ai/ha, scale 0 to 100, 0 no effect, 100 complete control
[20] = Postemergence, 125 g ai/ha, scale 0 to 100, 0 no effect, 100 complete control
[21] = Preemergence, 16 g ai/ha, scale 0 to 100 (0 no effect, 100 complete control)
[22] = Preemergence, 31 g ai/ha, scale 0 to 100 (0 no effect, 100 complete control)
[23] = Preemergence, 62 g ai/ha, scale 0 to 100 (0 no effect, 100 complete control)

FCc1cc(-c2c(F)cccc2Oc2ncc(Cl)cn2)no1 [Compound 57]
70: Plant response rating, Lambsquarters [2, 19] | Soybean plant response rating (soybean (Glycine max); [18]) | Plant response rating, Velvetleaf [5, 19] | Plant response rating, Galium [7, 22]
75: Plant response rating, Waterhemp [3, 19] | Plant response rating, Pigweed [8, 20] | Plant response rating, Pigweed [8, 21] | Plant response rating, Oilseed Rape [10, 19] | Plant response rating, Crabgrass, Large [12, 21] | Plant response rating (scale 0 to 100), Barnyardgrass ([14]; Preemergence, 62 g ai/ha)
15: Plant response rating, Blackgrass [6, 20] | Plant response rating, Wheat [16, 19]
20: Ragweed plant response rating [1, 17] | Plant response rating (scale 0 to 100), Nutsedge, Yellow ([4]; Preemergence, 125 g ai/ha) | Plant response rating, Nutsedge, Yellow [4, 23] | Plant response rating, Morningglory [9, 22] | Plant response rating, Foxtail, Giant [13, 19] | Plant response rating, Foxtail, Giant [13, 20] | Plant response rating, Barnyardgrass [14, 22] | Plant response rating, Wheat [16, 20]
90: Plant response rating, Soybean (soybean (Glycine max); [20]) | Plant response rating, Waterhemp [3, 22] | Plant response rating (scale 0 to 100), Galium ([7]; Preemergence, 125 g ai/ha) | Plant response rating, Galium [7, 23] | Plant response rating, Oilseed Rape [10, 20] | Plant response rating, Foxtail, Giant [13, 22]
10: Plant response rating, Nutsedge, Yellow [4, 22] | Velvetleaf plant response rating [5, 17] | Plant response rating, Corn (corn (Zea mays); [20]) | Plant response rating, Morningglory [9, 21] | Plant response rating, Crabgrass, Large [12, 19] | Plant response rating, Crabgrass, Large [12, 20] | Foxtail, Giant plant response rating [13, 18] | Plant response rating, Barnyardgrass [14, 20] | Plant response rating, Johnsongrass [15, 22]
30: Plant response rating (scale 0 to 100), Corn (corn (Zea mays); Preemergence, 125 g ai/ha) | Pigweed plant response rating [8, 17] | Oilseed Rape plant response rating [10, 17]
65: Plant response rating, Soybean (soybean (Glycine max); [22]) | Plant response rating, Galium [7, 19] | Plant response rating, Morningglory [9, 20]
40: Lambsquarters plant response rating [2, 18] | Soybean plant response rating (soybean (Glycine max); [17]) | Galium plant response rating [7, 17] | Plant response rating, Johnsongrass [15, 23]
50: Ragweed plant response rating [1, 18] | Velvetleaf plant response rating [5, 18] | Plant response rating, Blackgrass [6, 23] | Galium plant response rating [7, 18] | Plant response rating (scale 0 to 100), Ryegrass, Italian ([11]; Preemergence, 125 g ai/ha) | Plant response rating, Foxtail, Giant [13, 21]
5: Nutsedge, Yellow plant response rating [4, 18] | Plant response rating, Nutsedge, Yellow [4, 19] | Plant response rating, Nutsedge, Yellow [4, 20] | Corn plant response rating (corn (Zea mays); [18]) | Plant response rating, Corn (corn (Zea mays); [19]) | Plant response rating, Corn (corn (Zea mays); [23]) | Plant response rating, Blackgrass [6, 21] | Plant response rating, Blackgrass [6, 22] | Morningglory plant response rating [9, 17] | Plant response rating, Ryegrass, Italian [11, 23] | Crabgrass, Large plant response rating [12, 17] | Crabgrass, Large plant response rating [12, 18] | Barnyardgrass plant response rating [14, 18] | Plant response rating, Barnyardgrass [14, 19] | Plant response rating, Barnyardgrass [14, 21] | Plant response rating, Johnsongrass [15, 19] | Plant response rating, Johnsongrass [15, 20] | Wheat plant response rating [16, 18] | Plant response rating (scale 0 to 100), Wheat ([16]; Preemergence, 125 g ai/ha)
98: Plant response rating, Ragweed [1, 20] | Plant response rating, Waterhemp [3, 20]
80: Plant response rating, Lambsquarters [2, 20] | Plant response rating, Lambsquarters [2, 21] | Plant response rating, Velvetleaf [5, 20] | Plant response rating, Galium [7, 21] | Plant response rating (scale 0 to 100), Johnsongrass ([15]; Preemergence, 125 g ai/ha)
25: Plant response rating, Ragweed [1, 21]
55: Waterhemp plant response rating [3, 18] | Pigweed plant response rating [8, 18] | Plant response rating, Pigweed [8, 19] | Oilseed Rape plant response rating [10, 18]
100: Plant response rating (scale 0 to 100), Ragweed ([1]; Preemergence, 125 g ai/ha) | Plant response rating, Ragweed [1, 23] | Plant response rating (scale 0 to 100), Lambsquarters ([2]; Preemergence, 125 g ai/ha) | Plant response rating, Lambsquarters [2, 22] | Plant response rating, Lambsquarters [2, 23] | Plant response rating (scale 0 to 100), Waterhemp ([3]; Preemergence, 125 g ai/ha) | Plant response rating, Waterhemp [3, 21] | Plant response rating, Waterhemp [3, 23] | Plant response rating (scale 0 to 100), Velvetleaf ([5]; Preemergence, 125 g ai/ha) | Plant response rating, Velvetleaf [5, 21] | Plant response rating, Velvetleaf [5, 22] | Plant response rating, Velvetleaf [5, 23] | Plant response rating (scale 0 to 100), Pigweed ([8]; Preemergence, 125 g ai/ha) | Plant response rating, Pigweed [8, 23] | Plant response rating (scale 0 to 100), Oilseed Rape ([10]; Preemergence, 125 g ai/ha) | Plant response rating, Oilseed Rape [10, 21] | Plant response rating, Oilseed Rape [10, 22] | Plant response rating, Oilseed Rape [10, 23] | Plant response rating (scale 0 to 100), Crabgrass, Large ([12]; Preemergence, 125 g ai/ha) | Plant response rating, Crabgrass, Large [12, 23] | Plant response rating (scale 0 to 100), Foxtail, Giant ([13]; Preemergence, 125 g ai/ha) | Plant response rating, Foxtail, Giant [13, 23]
95: Plant response rating (scale 0 to 100), Soybean (soybean (Glycine max); Preemergence, 125 g ai/ha) | Plant response rating, Soybean (soybean (Glycine max); [23]) | Plant response rating, Galium [7, 20]
0: Nutsedge, Yellow plant response rating [4, 17] | Plant response rating, Nutsedge, Yellow [4, 21] | Corn plant response rating (corn (Zea mays); [17]) | Plant response rating, Corn (corn (Zea mays); [21]) | Plant response rating, Corn (corn (Zea mays); [22]) | Blackgrass plant response rating [6, 17] | Blackgrass plant response rating [6, 18] | Plant response rating, Blackgrass [6, 19] | Ryegrass, Italian plant response rating [11, 17] | Ryegrass, Italian plant response rating [11, 18] | Plant response rating, Ryegrass, Italian [11, 19] | Plant response rating, Ryegrass, Italian [11, 20] | Plant response rating, Ryegrass, Italian [11, 21] | Plant response rating, Ryegrass, Italian [11, 22] | Foxtail, Giant plant response rating [13, 17] | Barnyardgrass plant response rating [14, 17] | Johnsongrass plant response rating [15, 17] | Johnsongrass plant response rating [15, 18] | Plant response rating, Johnsongrass [15, 21] | Wheat plant response rating [16, 17] | Plant response rating, Wheat [16, 21] | Plant response rating, Wheat [16, 22] | Plant response rating, Wheat [16, 23]
45: Morningglory plant response rating [9, 18] | Plant response rating, Morningglory [9, 19] | Plant response rating (scale 0 to 100), Morningglory ([9]; Preemergence, 125 g ai/ha)
85: Plant response rating, Soybean (soybean (Glycine max); [19]) | Plant response rating, Pigweed [8, 22] | Plant response rating, Crabgrass, Large [12, 22] | Plant response rating (scale 0 to 100), Barnyardgrass ([14]; Preemergence, 125 g ai/ha)
35: Plant response rating, Ragweed [1, 22] | Plant response rating, Morningglory [9, 23]
60: Plant response rating, Ragweed [1, 19] | Lambsquarters plant response rating [2, 17] | Waterhemp plant response rating [3, 17] | Plant response rating (scale 0 to 100), Blackgrass ([6]; Preemergence, 125 g ai/ha)
